The record followed here is patent US8263595B2, “Triazolopyridine compounds and their use as ask inhibitors” (Merck Serono SA, priority 2007, dated 2012).

As a reminder, the IC50 is the midpoint of a concentration-inhibition curve.

Where a name gives a salt, the structure may show the parent alone.

One test relates to LPS-induced TNFα release. The test is described as follows: Lipopolysaccharide (LPS)-induced TNFα release assay in mice. The format is in vivo. The note with it: 30 mg/kg po, female C3H mice, given 15 min prior to LPS 0.3 mg/kg ip, blood sampled 90 min later. Here is the method:
The administration of LPS induces the release of TNFα from white blood cells (monocytes, macrophages, Kupffer cells, etc) and endothelial cells into the blood. This is a model for cytokine release that occurs during inflammation. […] ASK1 mediates free radical pathways. Based on this mechanism, the blockade of ASK1 by specific inhibitors should reduce LPS-induced TNFα release in mice.
Female C3H mice (Elevage Janvier) (8 week old), received E. Coli's LPS (O111:B4, Sigma, 0.3 mg/kg, ip) after the administration of the test articles. Ninety min later, the animals were sacrificed and the blood was sampled. Plasma levels of TNFα were determined in serum using an ELISA kit (R&D). LPS was solubilized in sterile saline.
The test articles were suspended in 0.5% CMC/0.25% Tween 20 and administered 15 min prior the challenge of LPS by oral route at the doses of 3 to 30 mg/kg. Control animals received the vehicle. In time course experiments, the test articles were administered 15 min to 4 hrs prior the challenge of LPS. Dexamethasone (0.1 mg/kg, po) was used as reference.
The animals were divided into 5 groups (6 mice each group):
Inhibition of TNFα release was calculated as follows: % inhibition=100*([…])) Where TNFα 1=TNFα concentration in group 1 (pg/ml), TNFα X=TNFα concentration in group X (pg/ml).
As for `O=C(Nc1nc2cccc(NC3CC3)n2n1)c1cccnc1` [Example 30, N-[5-(cyclopropylamino)[1,2,4]triazolo[1,5-a]pyridin-2-yl]nicotinamide], the “% inhibition of LPS-induced TNFα release in mice” value is listed as 43 ± 3%. As for `O=C(Nc1nc2cccc(-c3ccoc3)n2n1)c1cccnc1` [Example 2, N-[5-(3-furyl)[1,2,4]triazolo[1,5-a]pyridin-2-yl]nicotinamide], the “% inhibition of LPS-induced TNFα release in mice” value is 49 ± 8%.

The target of the next test is T1, human recombinant ASK1 (Homo sapiens, UniProt Q99683).
T1 sequence (Q99683 1-1374): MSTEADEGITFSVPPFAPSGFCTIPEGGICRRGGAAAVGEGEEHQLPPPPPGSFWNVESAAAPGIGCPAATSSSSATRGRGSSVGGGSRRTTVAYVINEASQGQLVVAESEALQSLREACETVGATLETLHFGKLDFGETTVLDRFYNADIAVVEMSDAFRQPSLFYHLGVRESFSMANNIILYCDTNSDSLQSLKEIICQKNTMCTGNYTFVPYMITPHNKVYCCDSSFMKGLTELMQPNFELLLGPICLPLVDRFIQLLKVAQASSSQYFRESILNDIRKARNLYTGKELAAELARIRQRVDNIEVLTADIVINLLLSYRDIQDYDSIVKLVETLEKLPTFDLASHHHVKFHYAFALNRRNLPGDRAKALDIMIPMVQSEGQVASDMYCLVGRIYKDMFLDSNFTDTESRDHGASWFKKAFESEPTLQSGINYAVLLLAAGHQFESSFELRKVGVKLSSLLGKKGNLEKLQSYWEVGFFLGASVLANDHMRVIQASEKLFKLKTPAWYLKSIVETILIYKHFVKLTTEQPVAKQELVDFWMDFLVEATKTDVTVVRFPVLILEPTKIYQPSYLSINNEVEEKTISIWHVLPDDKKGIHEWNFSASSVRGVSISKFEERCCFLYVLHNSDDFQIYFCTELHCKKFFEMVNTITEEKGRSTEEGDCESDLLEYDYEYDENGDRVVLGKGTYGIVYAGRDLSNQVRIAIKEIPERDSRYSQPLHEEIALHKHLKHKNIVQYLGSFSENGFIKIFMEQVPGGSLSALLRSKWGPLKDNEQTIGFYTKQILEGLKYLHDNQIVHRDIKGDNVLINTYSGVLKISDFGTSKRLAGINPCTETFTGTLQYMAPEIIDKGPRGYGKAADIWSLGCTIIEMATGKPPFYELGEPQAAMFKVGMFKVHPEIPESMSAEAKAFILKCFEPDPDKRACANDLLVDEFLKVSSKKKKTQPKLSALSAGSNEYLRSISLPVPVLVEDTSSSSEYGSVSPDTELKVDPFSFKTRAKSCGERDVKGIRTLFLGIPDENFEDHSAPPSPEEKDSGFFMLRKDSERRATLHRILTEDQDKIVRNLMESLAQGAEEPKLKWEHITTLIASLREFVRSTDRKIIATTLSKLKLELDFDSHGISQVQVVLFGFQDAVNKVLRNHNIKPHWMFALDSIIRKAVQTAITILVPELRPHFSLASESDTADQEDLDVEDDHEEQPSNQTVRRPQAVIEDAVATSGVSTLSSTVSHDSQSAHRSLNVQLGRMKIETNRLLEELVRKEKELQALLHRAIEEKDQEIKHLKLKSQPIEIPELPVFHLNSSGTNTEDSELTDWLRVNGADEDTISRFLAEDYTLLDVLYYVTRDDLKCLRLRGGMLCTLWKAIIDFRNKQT
The test is described as follows: Enzyme inhibition assay (in vitro ASK1 assay), luciferase-based measurement of remaining ATP. The format is biochemical. The note with it: human recombinant ASK1, MBP and ATP as substrates, 180 minutes at 30° C.; triplicates on at least 2 separate occasions. On the procedure:
Assays were performed in a 384 well plate (Corning, #3654) format, using the human recombinant ASK1 as an enzyme and MBP (myelin basic protein, Upstate/Millipore, #13-104) with ATP as substrates. Assay read out was the measurement of the amount of ATP remaining after stopping the reaction, using a luciferase-based kit from Cambrex.
Compounds to be tested were dissolved in 100% DMSO at a concentration of 10 mM. Subsequent dilutions were performed in 100% DMSO using a Biomek FX Workstation. 5 μL of diluted compound or vehicle (6% DMSO) was distributed to a 384 well plate. 5 μL of substrates (ATP 7.5 μM, MBP 450 ng/μL) diluted in ASK1 buffer (20 mM Tris HCl pH 7.4, 0.001% Brij35, 0.01% BSA, 5 mM MgCl2, 1 mM DL-Dithiothreitol) were added, followed by 5 μL at of human recombinant ASK1 enzyme (22.5 ng/mL) diluted in ASK1 buffer in order to start the reaction. The reaction ran for 180 minutes at 30° C. before the addition of 5 μL of stop solution (Cambrex, #LT23-231). 10 μL of Pklight ATP detection reagent (Cambrex #LT23-233) were added. After 120 min of incubation, luminescence was measured on a Perkin-Elmer Victor 2 spectrofluorimeter. The percentage of inhibition relative to the fluorescence observed in the presence of solvent (1% DMSO) alone was determined. The IC50 values for inhibition were determined in triplicates on at least 2 separate occasions.
For the compound `O=C(Nc1nc2cccc(NC3CCCCC3)n2n1)c1ccc(N2CCOCC2)nc1` [Example 86, N-[5-(cyclohexylamino)[1,2,4]triazolo[1,5-a]pyridin-2-yl]-6-morpholin-4-ylnicotinamide], the IC50 amounted to 0.11 ± 0.05 µM. On to `O=C(Nc1nc2cccc(-c3cn[nH]c3)n2n1)c1ccccc1` [Example 12, N-[5-(1H-pyrazol-4-yl)[1,2,4]triazolo[1,5-a]pyridin-2-yl]benzamide], for which the IC50 amounted to 14.8 ± 0.2 µM.

On to `CN(C)Cc1ccc(C(=O)Nc2nc3cccc(NC4CCCCC4)n3n2)cc1` [Example 87, N-[5-(cyclohexylamino)[1,2,4]triazolo[1,5-a]pyridin-2-yl]-4-[(dimethylamino)methyl]benzamide], for which the IC50 came out at 5.96 µM. Consider `CCC(C)Nc1cc(Cl)cc2nc(NC(=O)c3ccc(NCCCO)nc3)nn12` (stereo not shown) [Example 169, N-[5-(sec-butylamino)-7-chloro[1,2,4]triazolo[1,5-a]pyridin-2-yl]-6-[(3-hydroxypropyl)amino]nicotinamide], for which the IC50 worked out at 0.119 ± 0.029 µM. `CN1CCC(Nc2cccc3nc(NC(=O)c4ccccc4)nn23)CC1` [Example 72, N-{5-[(1-methylpiperidin-4-yl)amino][1,2,4]triazolo[1,5-a]pyridin-2-yl}benzamide]: the IC50 is 4.08 µM.

On to `O=C(Nc1nc2cccc(-c3ccc[nH]3)n2n1)C1CCCC1` [Example 10, N-[5-(1H-pyrrol-2-yl)[1,2,4]triazolo[1,5-a]pyridin-2-yl]cyclopentanecarboxamide], for which the IC50 worked out at 16 ± 4 µM. Turning to `Cc1ccc(CNc2cccc3nc(NC(=O)c4cccnc4)nn23)o1` [Example 63, N-(5-{[(5-methyl-2-furyl)methyl]amino}[1,2,4]triazolo[1,5-a]pyridin-2-yl)nicotinamide], the half-inhibitory concentration (IC50) is 9.86 µM. Turning to `O=C(Nc1nc2cccc(NC3CC3)n2n1)c1cccnc1` [Example 30, N-[5-(cyclopropylamino)[1,2,4]triazolo[1,5-a]pyridin-2-yl]nicotinamide], the IC50 worked out at 1.1 ± 0.5 µM. Same read-out and setting: the same measure for `O=C(Nc1nc2cccc(NC3CCCCCC3)n2n1)c1cccnc1` [Example 61, N-[5-(cycloheptylamino)[1,2,4]triazolo[1,5-a]pyridin-2-yl]nicotinamide dihydrochloride]: 0.18 ± 0.02 µM; for `CC(C)(C)OC(=O)NCc1ccc(C(=O)Nc2nc3cccc(-c4ccoc4)n3n2)cc1` [Example 52, tert-butyl[4-({[5-(3-furyl)[1,2,4]triazolo[1,5-a]pyridin-2-yl]amino}carbonyl)benzyl]carbamate]: 1.7 ± 0.2 µM. In the case of `CCC(CO)Nc1cccc2nc(NC(=O)c3ccccc3)nn12` (stereo not shown) [Example 50, N-(5-{[1-(hydroxymethyl)propyl]amino}[1,2,4]triazolo[1,5-a]pyridin-2-yl)benzamide], the IC50 turned out to be 8 ± 1 µM. The same measure, in the same setting: the same measure for `CC(C)Nc1cc(C(F)(F)F)cc2nc(NC(=O)c3cccnc3)nn12` [Example 99, N-[5-(isopropylamino)-7-(trifluoromethyl)[1,2,4]triazolo[1,5-a]pyridin-2-yl]nicotinamide]: 0.042 ± 0.007 µM; for `CN(C)Cc1ccc(C(=O)Nc2nc3cc(C(F)(F)F)cc(NC4CC4)n3n2)cc1` [Example 140, N-[5-(cyclopropylamino)-7-(trifluoromethyl)[1,2,4]triazolo[1,5-a]pyridin-2-yl]-4-[(dimethylamino)methyl]benzamide]: 1.14 µM. On to `COc1cc(-c2ccc3nc(NC(=O)c4cccnc4)nn3c2)ccc1O` [Example 66, N-[6-(4-hydroxy-3-methoxyphenyl)[1,2,4]triazolo[1,5-a]pyridin-2-yl]nicotinamide hydrochloride], for which the IC50 is 0.26 ± 0.01 µM.

`CC(C)=Cc1cccc2nc(NC(=O)c3cccnc3)nn12` [Example 94, N-[5-(2-methylprop-1-en-1-yl)[1,2,4]triazolo[1,5-a]pyridin-2-yl]nicotinamide dihydrochloride]: the IC50 came to 5.9 µM. On the same count and under the same terms, the same measure for `COc1cc(-c2ccc3nc(NC(=O)c4ccc(CN5CCCC5=O)cc4)nn3c2)ccc1O` [Example 146, N-[6-(4-hydroxy-3-methoxyphenyl)[1,2,4]triazolo[1,5-a]pyridin-2-yl]-4-[(2-oxopyrrolidin-1-yl)methyl]benzamide]: 0.138 ± 0.03 µM; for `O=C(Nc1nc2cc(Cl)cc(NC3CCCCC3)n2n1)c1cccnc1` [Example 120, N-[7-chloro-5-(cyclohexylamino)[1,2,4]triazolo[1,5-a]pyridin-2-yl]nicotinamide]: 0.067 ± 0.012 µM. Same read-out and setting: for `COc1cc(-c2ccc3nc(NC(=O)c4ccccc4)nn3c2)ccc1O` [Example 56, N-[6-(4-hydroxy-3-methoxyphenyl)[1,2,4]triazolo[1,5-a]pyridin-2-yl]benzamide hydrochloride] the value was 0.99 ± 0.04 µM; for `O=C(Nc1nc2cccc(NC3CCCCC3)n2n1)c1ccc(NCCCO)nc1` [Example 132, N-[5-(cyclohexylamino)[1,2,4]triazolo[1,5-a]pyridin-2-yl]-6-[(3-hydroxypropyl)amino]nicotinamide], 0.091 ± 0.026 µM; for `O=C(Nc1nc2cccc(-c3ccoc3)n2n1)c1cccnc1` [Example 2, N-[5-(3-furyl)[1,2,4]triazolo[1,5-a]pyridin-2-yl]nicotinamide], 0.7 ± 0.2 µM. Still for that read-out and setting: the same measure for `O=C(Nc1nc2cccc(NCC3CCCO3)n2n1)c1ccccc1` (stereo not shown) [Example 45, N-{5-[(tetrahydrofuran-2-ylmethyl)amino][1,2,4]triazolo[1,5-a]pyridin-2-yl}benzamide]: 3.38 µM. With `COCC(=O)Nc1nc2cccc(-c3ccoc3)n2n1` [Example 5, N-[5-(3-furyl)[1,2,4]triazolo[1,5-a]pyridin-2-yl]-2-methoxyacetamide], the IC50 came to 17 ± 5 µM. On to `O=C(Nc1nc2cccc(NCC3CCCCC3)n2n1)c1cccnc1` [Example 115, N-{5-[(cyclohexylmethyl)amino][1,2,4]triazolo[1,5-a]pyridin-2-yl}nicotinamide], for which the IC50 was determined as 0.519 ± 0.113 µM.
